According to DBAASP:
≈ marks a conversion by molar mass, not a printed value. Where “and” joins values, the source holds several entries; their conditions need not be identical. Identical values can stand only once.

Key:
Assay in all cases: ≥ marks a high value that may be exact or a test limit, other limits are often not marked, values filed in µg/mL are converted to µM
[1] = test system: Bacillus subtilis ATCC 6633
[2] = test system: Candida albicans ATCC 2002
[3] = test system: Escherichia coli ATCC 25922
Shigella dysenteriae = test system: Shigella dysenteriae
[4] = test system: Staphylococcus aureus ATCC 2592
Bacillus subtilis = test system: Bacillus subtilis
[5] = test system: Pseudomonas aeruginosa ATCC 27853
[6] = test system: Enterococcus faecalis ATCC 29212
[7] = test system: Staphylococcus aureus NCTC 8325
[8] = test system: Staphylococcus epidermidis RP62A
Escherichia coli K-12 = test system: Escherichia coli K-12
[9] = test system: Staphylococcus aureus USA 300
[10] = test system: Pseudomonas aeruginosa CMCCB 10104
[11] = test system: Staphylococcus aureus ATCC BAA-1556
Escherichia coli BW25113 = test system: Escherichia coli BW25113
[12] = test system: Micrococcus luteus ATCC 4698

Compound `CC[C@H](C)[C@H](NC(=O)[C@@H]1CCCN1C(=O)[C@H](Cc1ccccc1)NC(=O)[C@@H](N)Cc1ccccc1)C(=O)N[C@H](C(=O)NCC(=O)N[C@@H](CCCCN)C(=O)N[C@@H](CCCN=C(N)N)C(=O)N[C@@H](CC(C)C)C(=O)N[C@@H](Cc1ccc(O)cc1)C(=O)NCC(=O)N[C@@H](CC(C)C)C(=O)N[C@@H](CC(C)C)C(N)=O)C(C)C` [FFPIVGKRLYGLL] has an MIC [1] of 6.16 µM (≈ 9.37 µg/mL), an MIC [2] of 24.6 µM (≈ 37.5 µg/mL) and an MIC [3] of 46 µM (≈ 70 µg/mL). It also gave an MIC (Shigella dysenteriae) of 12.3 µM (≈ 18.7 µg/mL) and an MIC [4] of 3.09 µM (≈ 4.7 µg/mL).
`CC[C@H](C)[C@H](NC(=O)[C@H](C)NC(=O)CNC(=O)[C@@H](NC(=O)[C@@H](NC(=O)[C@@H](NC(=O)CNC(=O)[C@@H](NC(=O)[C@@H](NC(=O)[C@@H](NC(=O)[C@H](C)NC(=O)[C@H](Cc1ccccc1)NC(=O)[C@H](CC(C)C)NC(=O)[C@H](CCCN=C(N)N)NC(=O)[C@H](CCCN=C(N)N)NC(=O)[C@H](CC(C)C)NC(=O)CNC(=O)CNC(=O)[C@@H](NC(=O)[C@@H](N)Cc1ccccc1)[C@@H](C)CC)[C@@H](C)O)C(C)C)C(C)C)[C@@H](C)O)C(C)C)C(C)C)C(=O)N[C@@H](CC(N)=O)C(=O)N[C@@H](CCCCN)C(=O)N[C@@H](CC(C)C)C(=O)NCC(=O)NCC(=O)NCC(=O)O` [FIGGLRRLFATVVGTVVGAINKLGGG] showed an MIC (Bacillus subtilis) of at least 38.9 µM, an MIC [2] of 2.45 µM (≈ 6.3 µg/mL) and an MIC [3] of 4.86 µM (≈ 12.5 µg/mL). The MIC [5] was 8 µM (≈ 20.6 µg/mL) and the MIC [4] was 4.86 µM (≈ 12.5 µg/mL).
`CC[C@H](C)[C@H](NC(=O)[C@@H](NC(=O)[C@@H]1CCCN1C(=O)[C@H](CC(C)C)NC(=O)[C@@H](N)Cc1ccccc1)[C@@H](C)CC)C(=O)NCC(=O)N[C@@H](CCC(N)=O)C(=O)N[C@@H](CC(C)C)C(=O)N[C@@H](CC(C)C)C(=O)N[C@@H](CO)C(=O)NCC(=O)N[C@@H](CC(C)C)C(=O)N[C@@H](CC(C)C)C(N)=O` [FLPIIGQLLSGLL] showed an MIC [6] of over 80 µM, an MIC [7] of at least 80 µM and an MIC [8] of at least 80 µM.
With `CC[C@H](C)[C@H](NC(=O)[C@H](CCCN=C(N)N)NC(=O)[C@H](CCC(N)=O)NC(=O)[C@@H](NC(=O)[C@@H](NC(=O)[C@H](CCCN=C(N)N)NC(=O)[C@H](CCCCN)NC(=O)[C@H](Cc1ccccc1)NC(=O)CN)[C@@H](C)CC)C(C)C)C(=O)N[C@@H](CCCCN)C(=O)N[C@@H](CC(=O)O)C(=O)N[C@@H](Cc1ccccc1)C(=O)N[C@@H](CC(C)C)C(=O)N[C@@H](C)C(=O)N[C@@H](CC(N)=O)C(=O)N[C@@H](CC(C)C)C(=O)N[C@H](C(N)=O)C(C)C` [GFKRIVQRIKDFLANLV] the MIC (Escherichia coli K-12) was 15 µM (≈ 30.2 µg/mL) and the MIC [9] was 7.5 µM and 3.1 µM.
`CC[C@H](C)[C@H](N)C(=O)N[C@@H](CC(C)C)C(=O)NCC(=O)N1CCC[C@H]1C(=O)N[C@H](C(=O)N[C@H](C(=O)N[C@@H](CO)C(=O)N[C@H](C(=O)N[C@H](C(=O)NCC(=O)NCC(=O)N[C@H](C(=O)N[C@@H](CC(C)C)C(=O)NCC(=O)NCC(=O)N[C@@H](CC(C)C)C(=O)N[C@@H](CC(C)C)C(=O)N[C@@H](CCCCN)C(=O)N[C@@H](CC(N)=O)C(=O)N[C@@H](CC(C)C)C(N)=O)C(C)C)[C@@H](C)CC)[C@@H](C)O)[C@@H](C)CC)C(C)C` [ILGPVISTIGGVLGGLLKNL] was tested, and the MIC [2] was 2.33 µM (≈ 4.5 µg/mL), the MIC [3] was 4.65 µM (≈ 9 µg/mL) and the MIC [10] was 4.65 µM (≈ 9 µg/mL). It also gave an MIC [4] of 2.33 µM (≈ 4.5 µg/mL).
Compound `CC(C)C[C@H](NC(=O)[C@H](CC(C)C)NC(=O)[C@H](CC(C)C)NC(=O)[C@H](CC(C)C)NC(=O)[C@H](CC(C)C)NC(=O)[C@H](CC(C)C)NC(=O)[C@H](CCCCN)NC(=O)[C@H](CC(C)C)NC(=O)[C@@H](N)CCCCN)C(N)=O` [KLKLLLLLL] has an MIC [11] of at least 100 µM.
In the case of `CC[C@H](C)[C@H](NC(=O)[C@H](Cc1c[nH]c2ccccc12)NC(=O)[C@H](CCCN=C(N)N)NC(=O)[C@H](C)NC(=O)[C@H](Cc1c[nH]c2ccccc12)NC(=O)[C@@H](N)CCCCN)C(=O)N[C@@H](CCCN=C(N)N)C(=O)N[C@@H](Cc1c[nH]c2ccccc12)C(=O)N[C@@H](CC(C)C)C(N)=O` [KWARWIRWL], the MIC [11] was 12.5 µM (≈ 16.4 µg/mL).
`CC[C@H](C)[C@H](NC(=O)[C@H](Cc1c[nH]c2ccccc12)NC(=O)[C@H](CCCN=C(N)N)NC(=O)[C@H](CCCN=C(N)N)NC(=O)[C@H](Cc1c[nH]c2ccccc12)NC(=O)[C@@H](N)CCCCN)C(=O)N[C@@H](CCCN=C(N)N)C(=O)N[C@@H](Cc1c[nH]c2ccccc12)C(=O)N[C@@H](C)C(N)=O` [KWRRWIRWA] gave an MIC [11] of 12.5 µM (≈ 17 µg/mL).
In the case of `CC(C)C[C@H](NC(=O)[C@H](CC(C)C)NC(=O)[C@H](CCCCN)NC(=O)[C@H](CCCCN)NC(=O)[C@H](CC(C)C)NC(=O)[C@H](CC(C)C)NC(=O)[C@H](CC(C)C)NC(=O)[C@H](CC(C)C)NC(=O)[C@@H](N)CC(C)C)C(N)=O` [LLLLLKKLL], the MIC [11] was at least 100 µM.
With `CC[C@H](C)[C@H](NC(=O)[C@H](CCCN=C(N)N)NC(=O)[C@@H](N)CCCN=C(N)N)C(=O)N[C@@H](CCCN=C(N)N)C(=O)N[C@@H](Cc1ccccc1)C(=O)N[C@@H](CCCN=C(N)N)C(=O)N1CCC[C@H]1C(=O)N1CCC[C@H]1C(=O)N[C@@H](Cc1ccc(O)cc1)C(=O)N[C@@H](CC(C)C)C(=O)N1CCC[C@H]1C(=O)N[C@@H](CCCN=C(N)N)C(=O)N1CCC[C@H]1C(=O)NCC(=O)N[C@@H](CCCN=C(N)N)C(=O)N[C@@H](CCCN=C(N)N)C(=O)O` [RRIRFRPPYLPRPGRR] the MIC (Escherichia coli BW25113) was 4 µM (≈ 8.37 µg/mL).
For `CC[C@H](C)[C@H](NC(=O)[C@@H]1CCCN1C(=O)[C@H](CCCN=C(N)N)NC(=O)[C@H](CCCN=C(N)N)NC(=O)[C@H](CCCN=C(N)N)NC(=O)[C@H](Cc1c[nH]c2ccccc12)NC(=O)[C@@H]1CCCN1C(=O)[C@H](CCCN=C(N)N)NC(=O)[C@H](CCCN=C(N)N)NC(=O)[C@H](CCCN=C(N)N)NC(=O)[C@@H](N)CCCN=C(N)N)C(=O)N[C@@H](CCCN=C(N)N)C(=O)N1CCC[C@H]1C(=O)N1CCC[C@H]1C(=O)N[C@@H](Cc1ccccc1)C(=O)N[C@@H](Cc1ccc(O)cc1)C(=O)N[C@@H](Cc1c[nH]c2ccccc12)C(=O)O` [RRRRPWRRRPIRPPFYW], the MIC (Escherichia coli BW25113) was 8 µM (≈ 19.6 µg/mL).
`CC[C@H](C)[C@H](NC(=O)[C@@H]1CCCN1C(=O)[C@H](CCCN=C(N)N)NC(=O)[C@H](CCCN=C(N)N)NC(=O)[C@H](Cc1c[nH]c2ccccc12)NC(=O)[C@@H](N)CCCN=C(N)N)C(=O)N[C@@H](CCCN=C(N)N)C(=O)N[C@@H](CCCN=C(N)N)C(=O)N1CCC[C@H]1C(=O)N1CCC[C@H]1C(=O)N[C@H](C(=O)N[C@@H](CCCN=C(N)N)C(=O)N1CCC[C@H]1C(=O)N1CCC[C@H]1C(=O)N[C@@H](Cc1c[nH]c2ccccc12)C(=O)N[C@@H](Cc1ccc(O)cc1)C(=O)N1CCC[C@H]1C(=O)O)[C@@H](C)CC` [RWRRPIRRPPIRPPWYP] was tested, and the MIC (Escherichia coli BW25113) was 8 µM (≈ 18.4 µg/mL).
`CC[C@H](C)[C@H](NC(=O)[C@@H]1CCCN1C(=O)[C@H](Cc1c[nH]c2ccccc12)NC(=O)[C@H](CCCN=C(N)N)NC(=O)[C@H](Cc1c[nH]c2ccccc12)NC(=O)[C@@H](N)CCCN=C(N)N)C(=O)N[C@@H](CCCN=C(N)N)C(=O)N[C@@H](CCCN=C(N)N)C(=O)N1CCC[C@H]1C(=O)N1CCC[C@H]1C(=O)N[C@H](C(=O)N[C@@H](CCCN=C(N)N)C(=O)N1CCC[C@H]1C(=O)N1CCC[C@H]1C(=O)N[C@@H](Cc1ccccc1)C(=O)N[C@@H](Cc1ccc(O)cc1)C(=O)N1CCC[C@H]1C(=O)O)[C@@H](C)CC` [RWRWPIRRPPIRPPFYP] showed an MIC (Escherichia coli BW25113) of 8 µM (≈ 18.3 µg/mL).
`CC[C@H](C)[C@H](NC(=O)[C@H](CO)NC(=O)[C@H](CCCCN)NC(=O)[C@@H](N)CO)C(=O)N1CCC[C@H]1C(=O)NCC(=O)N[C@@H](CCCN=C(N)N)C(=O)N[C@@H](CO)C(=O)NCC(=O)O` [SKSIPGRSG] showed an MIC [12] of at least 75 µM.
Compound `CC(C)C[C@H](NC(=O)[C@H](Cc1c[nH]c2ccccc12)NC(=O)[C@H](Cc1c[nH]c2ccccc12)NC(=O)[C@H](CC(C)C)NC(=O)[C@H](Cc1c[nH]c2ccccc12)NC(=O)[C@H](CCCN=C(N)N)NC(=O)[C@H](CC(C)C)NC(=O)[C@H](Cc1c[nH]c2ccccc12)NC(=O)[C@@H](N)Cc1c[nH]c2ccccc12)C(N)=O` [WWLRWLWWL] has an MIC [11] of 6.25 µM (≈ 9.02 µg/mL).
In the case of `CC(C)C[C@H](NC(=O)[C@H](Cc1c[nH]c2ccccc12)NC(=O)[C@H](Cc1c[nH]c2ccccc12)NC(=O)[C@H](CC(C)C)NC(=O)[C@H](Cc1c[nH]c2ccccc12)NC(=O)[C@H](Cc1c[nH]c2ccccc12)NC(=O)[C@H](CC(C)C)NC(=O)[C@H](Cc1c[nH]c2ccccc12)NC(=O)[C@@H](N)Cc1c[nH]c2ccccc12)C(N)=O` [WWLWWLWWL], the MIC [11] was at least 100 µM.
